Measurements: patent US5023237A, “Methods and compositions for healing ulcers” (priority 1989, dated 1991)
“Also recorded” adds a separate entry of the source. Peptide text beside a SMILES is read from it.

Columns and labels:
[1] = tested on: Stomach ulcers induced by the Shay procedure; assay: Shay model, stomach ulcer formation and acid secretion (Example 8); assay type: in vivo, rat; settings: for Ulcer formation and stomach acid secretion, in words: Shay model, compared with saline controls; for pH: stomach contents after 24 hours; for % WITH ULCERS: positive if a single lesion is noted
Method: Stomach ulcers were induced in rats by the Shay procedure. Briefly, the passage between the stomach and the intestine in the rat is tied off, thereby causing a buildup of stomach acid. Ulcer formation is visible after 18-24 hours of ligation.
For treatment, the rats received either GHL-Cu or a derivative in 0.25 ml of saline into the stomach via a gastric feeding tube immediately after the surgical procedure. Control rats received saline only. After 24 hours, the rats were sacrificed, the stomachs were removed and photographed. The acidity of the stomach contents was also measured.
In the experiments reported here, the rats were treated with various doses of glycyl-L-histidyl-L-lysine (GHL), GHL-Cu (2:1), or GHL-Cu (1:1) complex of various analogs of GHL as the 1:1 copper complexes.
Stomach ulcers were induced in groups of rats as described above. The animals were dosed with increasing amounts of either GHL:Cu at a molar ration of 2 moles of GHL to 1 mole of Cu (2:1), equimolar complex (1:1), and GHL without copper. After 24 hours, the stomachs were removed, the pH was determined and the percent of stomachs with visible ulcers was determined.
The presence of ulcers is scored positive if a single lesion is noted, regardless of the size.

[2] = tested on: Duodenal ulcers induced by cysteamine; assay: Healing of cysteamine-induced duodenal ulcers (Example 9); assay type: in vivo, S.D. rats; settings: for Healing of duodenal ulcers, in words: drinking water treatment, compared to controls
Method: Cysteamine will induce chronic duodenal ulcers in rats when injected subcutaneously (Olsen, P. S., Poulsen, S. S., Therkelsen, K., and Nexo, E., Oral administration of synthetic human urogastrone promotes healing of chronic duodenal ulcers in rats, Gastroenterology 90:911-917 (1986)).
Duodenal ulcers were induced in a group of 40 S.D. rats (male and female) by subcutaneous injections of cysteamine (350 mg/kg and 175 mg/kg) 6 hours apart. Saline was injected subcutaneously (5 cc) to provide fluid. Surviving animals (n=34) were followed for 7 days then laparotomies were performed. External examinations of the duodenum were made to determine extent of adhesion of the liver or other surrounding tissues. Animals with duodenal ulcers were randomized (by sex) to receive GHL-Cu (2:1) in distilled water, or plain distilled water. Animals were maintained for 25 days after which they were sedated, stomachs and duodenums removed and dissected for internal inspection. The results were obtained and recorded, specimens immersed in 10% buffered formalin for analysis with a stereomicroscope.
(§1) The following rating scale was used to express severity of ulceration:
(§2) 0--no indication of ulceration
1--mild ulceration, no extension through duodenum
2--moderate ulceration, fixation of surrounding tissue
3--extreme ulceration through duodenum
On the day of laparotomy, 28 rats ([…]) were determined to have significant adhesion of the duodenum to surrounding tissues. These animals were randomized by sex to either the GHL-Cu or control group. Following 25 days of drinking water treatment (total dose per day of 0.6 mg/kg), rats were sedated and prepped for dissection. The stomach and duodenum were removed, notations made as to extent of residual adhesions. Internal inspection of the duodenum was made prior to immersion of specimen in 10% formalin. Results at the time of gross inspection indicated 11 out of 14 control animals had significant residual ulcerations extending to the liver primarily.

[3] = tested on: gastric ulcers induced by 95% ethanol; assay: Prevention of ethanol-induced gastric ulcers (Example 10); assay type: in vivo, SD rats; settings: for Prevention of ethanol-caused gastric irritation and ulceration, in words: pretreatment, 95% ethanol ingestion; for Ulceration after ethanol, in words: stomachs inspected one hour after ethanol
Method: (§3) A series of ethanol induced gastric ulcer studies was conducted. Ulcers were induced by oral administration of 95% ethyl alcohol (Scan. J. Gastroenterol 23:665-671 (1988)). The studies were conducted to determine both the preventative and healing effects of glycl-L-histidyl-L-lysine:Cu.
A dose of 2.0 ml/kg 95% ethanol was chosen to induce gastric ulcers in rats. Prior to the ethanol ingestion, three groups of rats were pretreated with 0.5 ml of 2% glycyl-L-histidyl-L-lysine:Cu (1:1) as follows:
Group 1: 2 hours prior to Ethanol dosing
Group 2: 4 hours prior to Ethanol dosing
Group 3: 6 hours prior to Ethanol dosing
In addition, 4 rats served as controls with no pretreatment. One hour following ethanol administration, the stomachs were removed and inspected for ulceration as described above.

[4] = tested on: ulcers induced by 95% ethanol; assay: Healing of ethanol-induced gastric ulcers (Example 10); assay type: in vivo, rats; settings: for Healing of ethanol-induced ulcers, in words: drinking water treatment, compared to controls; for # animals with rating 0 (no indication of ulceration) / # animals with rating 1 (some irritation) / # animals with rating 2 (small ulcers present) / # animals with rating 3 (large ulcers present): day 7
Method: as §3
The ability of glycyl-L-histidyl-L-lysine:Cu (2:1) to heal ulcers induced by 95% ethanol has also been examined. In this study, ulcers were induced by administration of 4 ml/kg of 95% ethanol. The rats were then treated with glycyl-L-histidyl-L-lysine:Cu (2:1) in the drinking water at a dose of 0.01 mg/ml and 0.1 mg/ml (total dose per day of 1.6 mg/kg and 16 mg/kg, respectively). The rats were terminated at day 7 after ulcer induction and the stomachs examined for the presence of ulcers.
as §1, §2

[5] = tested on: Stomach ulcers induced by the Shay procedure (buildup of stomach acid); assay: Shay model, stomach acidity and mucous secretion (Example 7); assay type: in vivo, rat; parameters: key to Mucous Production: 0 represented substantially no mucous observed; ++++ represented a very heavy mucous secretion; settings: rats, after 24 hours; for Stomach acidity pH ± standard deviation: 10 mg in 0.25 ml saline intubated into the stomach
Method: Stomach ulcers were induced in rates by the Shay procedure. Briefly stated, the passage between the stomach and the intestine in the rat is tied off, thereby causing a buildup of stomach acid, resulting in ulceration. For treatment, the rats received 10 mg of GHL or GHL-Cu or a derivative thereof in 0.25 ml saline intubated into the stomach. Control rats received saline only. After 24 hours, the stomachs were photographed and the stomach acidity determined.
The results of the experiments are shown in Table 1, which depicts the inhibition of stomach acid accumulation and stimulation of cytoprotective mucous secretion in the rats. The mucous production was visually rated from 0 to ++++, where 0 represented substantially no mucous observed and ++++ represented a very heavy mucous secretion.

[6] = microscopic examination, 25 days drinking water, 0.6 mg/kg per day
[7] = GHL-Cu (2:1) 0.01 mg/ml in drinking water (1.6 mg/kg per day)
[8] = GHL-Cu (2:1) 0.1 mg/ml in drinking water (16 mg/kg per day)

Row | Compound | Ulcer formation and stomach acid secretion, in words [1] | pH ([1]; dose 3 mg into stomach) [pH] | % WITH ULCERS ([1]; dose 3 mg, after 24 hours) [%] | Healing of duodenal ulcers, in words [2] | Prevention of ethanol-caused gastric irritation and ulceration, in words [3] | Healing of ethanol-induced ulcers, in words [4] | pH ([1]; dose 10 mg into stomach) [pH] | % WITH ULCERS ([1]; dose 10 mg, after 24 hours) [%] | Stomach acidity pH ± standard deviation [5] [pH] | also measured
1 | L-lysyl-L-histidyl-glycine:copper(II) [LGH-Cu] | decreased stomach acid secretion and resulted in fewer visible lesions | 3.61 ± 1.00 | 11 | accelerate the healing of established duodenal ulcers | prevent gastric irritation and ulceration | accelerate the healing of ulcers | – | – | – | –
2 | glycyl-L-histidyl-L-lysine n-octyl ester:copper(II) [GHL octyl ester:Cu] | – | 3.50 ± 1.18 | 25 | – | – | – | 6.18 ± 0.98 | 0 | – | –
3 | glycyl-L-histidyl-L-lysine:Cu (1:1) [GHL-Cu(1:1)] | inhibited ulcer formation and raised the pH of the stomach contents in a dose responsive manner | 4.85 ± 1.17 | 0 | – | – | – | 7.23 ± 0.64 | 0 | – | Lesion formation, in words (photographs, FIG. 1) ([1]; 10 mg, after 24 hours): complete inhibition of lesion formation; pH ([1]; dose 1 mg into stomach): 3.80 ± 1.34 pH; % WITH ULCERS ([1]; dose 1 mg, after 24 hours): 33%; Ulceration after ethanol, in words ([3]; 0.5 ml of 2% solution 2 hours prior to 2.0 ml/kg 95% ethanol): No evidence of ulceration; also recorded: totally blocking damage; Ulceration after ethanol, in words ([3]; 0.5 ml of 2% solution 4 hours prior to 2.0 ml/kg 95% ethanol): Significantly better than controls, however, small ulcers were visible; Ulceration after ethanol, in words ([3]; 0.5 ml of 2% solution 6 hours prior to 2.0 ml/kg 95% ethanol): Mixed results
4 | NCCCC[C@H](NC(=O)[C@H](Cc1c[nH]cn1)NC(=O)CN)C(=O)O [GHL, glycyl-L-histidyl-L-lysine] (H-Gly-His-Lys-OH) | – | – | – | – | – | – | 2.84 ± 0.90 | 40 | 3.26 ± 0.47 | –
5 | glycyl-L-histidyl-L-lysine:Cu (2:1) [GHL-Cu(2:1)] | inhibited ulcer formation and raised the pH of the stomach contents in a dose responsive manner | 2.72 ± 1.03 | 50 | the severity was reduced | – | – | 6.38 ± 1.01 | 11 | – | # animals with rating 0 (no indication of ulceration) [2, 6]: 4 animals; # animals with rating 1 (mild ulceration, no extension through duodenum) [2, 6]: 5 animals; # animals with rating 2 (moderate ulceration, fixation of surrounding tissue) [2, 6]: 3 animals; # animals with rating 3 (extreme ulceration through duodenum) [2, 6]: 2 animals
6 | glycyl-L-histidyl-L-lysine:copper(II) [GHL-Cu] | decreased stomach acid secretion and resulted in fewer visible lesions | – | – | accelerate the healing of established duodenal ulcers | prevent gastric irritation and ulceration | majority of the animals had no demonstrable ulcers; also recorded: accelerate the healing of ulcers | – | – | 6.94 ± 0.25 | Mucous Production ([5]; 10 mg in 0.25 ml saline, visually rated 0 to ++++): ++++; Animals with residual ulcerations at gross inspection ([2]; GHL-Cu (2:1) in drinking water 25 days, 0.6 mg/kg per day, control 11 out of 14): 7 out of 14; # animals with rating 0 (no indication of ulceration) [4, 7]: 5 animals; # animals with rating 1 (some irritation) [4, 7]: 2 animals; # animals with rating 2 (small ulcers present) [4, 7]: 0 animals; # animals with rating 3 (large ulcers present) [4, 7]: 0 animals; # animals with rating 0 (no indication of ulceration) [4, 8]: 5 animals; # animals with rating 1 (some irritation) [4, 8]: 1 animals; # animals with rating 2 (small ulcers present) [4, 8]: 1 animals; # animals with rating 3 (large ulcers present) [4, 8]: 0 animals
